Laboratory results published in patent US8742110B2, “Spiroxazolidinone compounds” (Merck Sharp & Dohme Corp., priority 2010, dated 2014).
pIC50: −log10 of the molar value. Structures can show the parent of a compound that is named as a salt.

Target: SSTR5 (Homo sapiens (Human), UniProt P35346)
Experiment: SSTR5 binding assay
Conditions: CHO-K1 membranes expressing cloned human SSTR5
Outline: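 Competition binding on membranes from CHO-K1 cells stably expressing cloned human receptor, using radiolabeled somatostatin in 50 mM Tris-HCl pH 7.8 with EGTA, MgCl2 and protease inhibitors. Unlabeled compounds tested from 0.01 nM to 10,000 nM.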

Chain of SSTR5 (P35346 whole entry): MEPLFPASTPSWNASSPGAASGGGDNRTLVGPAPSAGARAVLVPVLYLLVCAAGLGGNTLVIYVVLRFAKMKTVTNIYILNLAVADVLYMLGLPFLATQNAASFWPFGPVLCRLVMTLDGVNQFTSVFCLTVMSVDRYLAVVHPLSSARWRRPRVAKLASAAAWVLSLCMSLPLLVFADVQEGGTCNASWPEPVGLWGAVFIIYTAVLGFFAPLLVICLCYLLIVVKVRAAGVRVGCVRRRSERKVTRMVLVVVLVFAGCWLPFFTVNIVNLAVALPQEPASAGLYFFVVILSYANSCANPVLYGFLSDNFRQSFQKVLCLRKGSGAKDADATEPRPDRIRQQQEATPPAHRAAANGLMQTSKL

| SMILES | pIC50 |
| --- | --- |
| CCOc1cc(CN2CCC3(CC2)CN(c2ccc(C4(C(=O)O)CC4)cc2)C(=O)O3)cc(OCC)c1-c1ccc(F)cc1 [Example 3-10, 1-(4-{8-[(2,6-Diethoxy-4′-fluorobiphenyl-4-yl)methyl]-2-oxo-1-oxa-3,8-diazaspiro[4.5]dec-3-yl}phenyl)cyclopropanecarboxylic acid, TFA salt] | 8.08 |
| CCOc1ccc(-c2ccc(F)c(F)c2F)c(CN2CCC3(CC2)CN(c2ccc(C(=O)O)cc2)C(=O)O3)n1 [Example 4-2, 4-(8-{[6-Ethoxy-3-(2,3,4-trifluorophenyl)pyridin-2-yl]methyl}-2-oxo-1-oxa-3,8-diazaspiro[4.5]dec-3-yl)benzoic acid, TFA salt] | 7.88 |
| CCOc1cc(CN2CCC3(CC2)CN(c2ccc(C(=O)O)cc2)C(=O)O3)cc2ccc(C(F)(F)F)nc12 [Example 5-9, 4-(8-{[8-Ethoxy-2-(trifluoromethyl)quinolin-6-yl]methyl}-2-oxo-1-oxa-3,8-diazaspiro[4.5]dec-3-yl)benzoic acid, TFA salt] | 7.95 |
| O=C(O)c1ccc(N2CC3(CCN(Cc4nn(Cc5ccc(Cl)cc5)cc4-c4cc(F)c(F)cc4F)CC3)OC2=O)cc1 [Example 2-4, 4-(8-{[1-(4-Chlorobenzyl)-4-(2,4,5-trifluorophenyl)-1H-pyrazol-3-yl]methyl}-2-oxo-1-oxa-3,8-diazaspiro[4.5]dec-3-yl)benzoic acid, TFA salt] | 6.95 |
| O=C(O)c1ccc(N2CC3(CCN(Cc4cn(C5CCCCC5)nc4-c4ccc(OC(F)(F)F)cc4)CC3)OC2=O)cc1 [Example 1-23, 4-[8-({1-Cyclohexyl-3-[4-(trifluoromethoxy)phenyl]-1H-pyrazol-4-yl}methyl)-2-oxo-1-oxa-3,8-diazaspiro[4.5]dec-3-yl]benzoic acid, TFA salt] | 8.65 |

The next lines start with the values.

| pIC50 | SMILES |
| --- | --- |
| 8.88 | Cc1cc(-c2ccc(F)nc2)c(CN2CCC3(CC2)CN(c2ccc(C(=O)O)cc2)C(=O)O3)cc1Cl [Example 4-25, 4-{8-[5-Chloro-2-(6-fluoropyridin-3-yl)-4-methylbenzyl]-2-oxo-1-oxa-3,8-diazaspiro[4.5]dec-3-yl}benzoic acid, TFA salt] |
| 9.38 | CC(C)(C)n1cc(CN2CCC3(CC2)CN(c2ccc(C(=O)O)cc2)C(=O)O3)c(-c2ccc(F)c(Cl)c2)n1 [Example 1-28, 4-(8-{[1-tert-Butyl-3-(3-chloro-4-fluorophenyl)-1H-pyrazol-4-yl]methyl}-2-oxo-1-oxa-3,8-diazaspiro[4.5]dec-3-yl)benzoic acid, TFA salt] |
| 8.70 | COc1ccc(-c2nn(-c3ccccc3)cc2CN2CCC3(CC2)CN(c2ccc(C(=O)O)cc2)C(=O)O3)cc1 [Example 1-9, 4-(8-{[3-(4-Methoxyphenyl)-1-phenyl-1H-pyrazol-4-yl]methyl}-2-oxo-1-oxa-3,8-diazaspiro[4.5]dec-3-yl)benzoic acid, TFA salt] |
| 8.65 | CCOc1cc(CN2CCC3(CC2)CN(c2cc(C(=O)O)ccn2)C(=O)O3)cc(OCC)c1-c1ccc(F)cc1 [Example 3-17, 2-{8-[(2,6-Diethoxy-4′-fluorobiphenyl-4-yl)methyl]-2-oxo-1-oxa-3,8-diazaspiro[4.5]dec-3-yl}pyridine-4-carboxylic acid, TFA salt] |
